Results: patent US7358249B2, “Heterocyclic compounds having inhibitory activity against HIV integrase” (Shionogi & Co., Ltd., priority 2002, dated 2008)
Where “and” joins values, the source holds several entries; their conditions need not be identical. Identical values can stand only once. Counter-ions that a name gives are not always drawn.

melting point	Structure (SMILES)
117 to 118 °C	COCCCC(=O)c1ncc2cc(Cc3ccc(F)cc3)cnc2c1O
260 to 262 °C	COC(=O)c1nc(N2CCCC2=O)c2cc(Cc3ccc(F)cc3)cnc2c1O
254 to 255 °C	COC(=O)c1nc(NC(=O)Nc2ccccc2)c2cc(Cc3ccc(F)cc3)cnc2c1O
192 to 193 °C	CC(=O)N1CCC(OC(=O)c2nc(C#CCNS(C)(=O)=O)c3cc(Cc4ccc(F)cc4)cnc3c2O)CC1
219 to 221 °C	CN(C)NC(=O)c1nc(-c2ccc(CO)cc2)c2cc(Cc3ccc(F)cc3)cnc2c1O
183 to 185 °C and 186 °C	COC(=O)c1nc(N2CCCCS2(=O)=O)c2cc(Cc3ccccc3)cnc2c1O
167 to 168 °C	CC(C)NC(=O)c1nc(NS(C)(=O)=O)c2cc(Cc3ccc(F)cc3)cnc2c1O
> 300 °C	O=C(NCc1ccc(F)cc1)c1c(O)c2ncc(Cc3ccccc3)cc2[nH]c1=O
249 to 251 °C (dec.)	CC(C)OC(=O)c1cc(C(=O)O)c2cc(Cc3ccc(F)cc3)cnc2c1O
249 to 251 °C (dec.)	CCCOC(=O)c1cc(C(=O)O)c2cc(Cc3ccc(F)cc3)cnc2c1O
235 to 237 °C	CCC(=O)c1cc(C(=O)O)c2cc(Cc3ccc(F)cc3)cnc2c1O
232 to 234 °C	CCCC(=O)c1cc(C(=O)O)c2cc(Cc3ccc(F)cc3)cnc2c1O
227 to 229 °C	CCCCC(=O)c1cc(C(=O)O)c2cc(Cc3ccc(F)cc3)cnc2c1O
216 to 218 °C	COCCCCC(=O)c1cc(C(=O)O)c2cc(Cc3ccc(F)cc3)cnc2c1O
191 to 192 °C	COC(=O)c1cc(NC(=O)C(F)(F)F)c2cc(Cc3ccc(F)cc3)cnc2c1O
195 to 197 °C	O=C1CCc2cc3cc(Cc4ccc(F)cc4)cnc3c(O)c21
166 to 168 °C	COC(=O)c1cc(C(C)=O)c2cc(Cc3ccc(F)cc3)cnc2c1O
243 to 245 °C	COC(=O)c1cc(N(C=O)C=O)c2cc(Cc3ccc(F)cc3)cnc2c1O
110 to 111 °C	COCc1cc(C(=O)OC)c(O)c2ncc(Cc3ccc(F)cc3)cc12
90 to 91 °C	CCN(C=O)c1cc(C(=O)OC)c(O)c2ncc(Cc3ccc(F)cc3)cc12
149 to 150 °C	CCN(c1cc(C(=O)OC)c(O)c2ncc(Cc3ccc(F)cc3)cc12)S(C)(=O)=O
131 to 133 °C	COC(=O)c1cc(C(=O)OCc2ccccc2)c2cc(Cc3ccc(F)cc3)cnc2c1O

melting point	Structure (SMILES)
154 to 156 °C	COC(=O)c1cc(CN2C(=O)CCCC2=O)c2cc(Cc3ccc(F)cc3)cnc2c1O
168 to 169 °C	COC(=O)Cc1cc(C(=O)OC)c(O)c2ncc(Cc3ccc(F)cc3)cc12
203 to 205 °C	CNC(=O)c1cc(C(=O)O)c2cc(Cc3ccc(F)cc3)cnc2c1O
214.5 to 215.5 °C	CN(C)C(=O)c1cc(C(=O)O)c2cc(Cc3ccc(F)cc3)cnc2c1O
139 to 141 °C	COC(=O)C=Cc1cc(C(=O)OC)c(O)c2ncc(Cc3ccc(F)cc3)cc12
235 to 237 °C	COC(=O)c1cc(C=CC(=O)O)c2cc(Cc3ccc(F)cc3)cnc2c1O
254 to 256 °C	COC(=O)c1cc(CCC(=O)O)c2cc(Cc3ccc(F)cc3)cnc2c1O
73 to 75 °C	COC(=O)c1cc(-c2ccccc2C=O)c2cc(Cc3ccc(F)cc3)cnc2c1O
206 °C	COC(=O)c1cc(C(N)=O)c2cc(Cc3ccc(F)cc3)cnc2c1OC(C)=O
249 to 251 °C	COC(=O)c1cc(NCC(C)C)c2cc(Cc3ccc(F)cc3)cnc2c1O
250 to 251 °C	COC(=O)c1cc(NC(=O)C2CCCCC2)c2cc(Cc3ccc(F)cc3)cnc2c1O
154 to 155 °C	COCC(=O)Nc1cc(C(=O)OC)c(O)c2ncc(Cc3ccc(F)cc3)cc12
189 to 191 °C	CNC(=S)Nc1cc(C(=O)OC)c(O)c2ncc(Cc3ccc(F)cc3)cc12
230 to 232 °C	COC(=O)c1cc(NC(=O)c2ccccc2Cl)c2cc(Cc3ccc(F)cc3)cnc2c1O
248 to 250 °C	COC(=O)c1cc(N2CCNC2=O)c2cc(Cc3ccc(F)cc3)cnc2c1O
172 to 173 °C	COC(=O)c1cc(NC(=O)COc2ccccc2)c2cc(Cc3ccc(F)cc3)cnc2c1O
92 to 93 °C	CC(=O)N1CCC(OC(=O)c2cc(C(=O)NN(C)C)c3cc(Cc4ccc(F)cc4)cnc3c2O)CC1
97 to 99 °C	CC(=O)N1CCC(OC(=O)c2cc(C(=O)NCCCO)c3cc(Cc4ccc(F)cc4)cnc3c2O)CC1
251 to 253 °C	COC(=O)c1cc(C(=O)NCCNC(C)=O)c2cc(Cc3ccc(F)cc3)cnc2c1O
246 to 247 °C	COC(=O)c1cc(C(=O)NC2CCOCC2)c2cc(Cc3ccc(F)cc3)cnc2c1O
198 to 199 °C	COC(=O)c1cc(C(=O)NCCC2CCOCC2)c2cc(Cc3ccc(F)cc3)cnc2c1O
184 to 185 °C	COC(=O)c1cc(C(=O)N2CCSCC2)c2cc(Cc3ccc(F)cc3)cnc2c1O

melting point	Structure (SMILES)
149 to 150 °C	COC(=O)c1cc(C(=O)N2COCC2(C)C)c2cc(Cc3ccc(F)cc3)cnc2c1O
241 to 242 °C	COC(=O)c1cc(C(=O)Nc2ccncn2)c2cc(Cc3ccc(F)cc3)cnc2c1O
184 to 185 °C	COC(=O)c1cc(C(=O)NNC(=O)c2cccnc2)c2cc(Cc3ccc(F)cc3)cnc2c1O
164 to 166 °C	COC(=O)c1cc(C(=O)NNC(=O)c2ccccn2)c2cc(Cc3ccc(F)cc3)cnc2c1O
166 to 167 °C	COCCCNC(=O)c1cc(C(=O)OC)c(O)c2ncc(Cc3ccc(F)cc3)cc12
174 to 175 °C	CCOCCNC(=O)c1cc(C(=O)OC)c(O)c2ncc(Cc3ccc(F)cc3)cc12
212 to 213 °C	COC(=O)c1cc(C(=O)NC2CCCCC2)c2cc(Cc3ccc(F)cc3)cnc2c1O
> 250 °C	COC(=O)c1cc(C(=O)NN2CCOCC2)c2cc(Cc3ccc(F)cc3)cnc2c1O
115 to 116 °C	COC(=O)c1cc(C(=O)NCCN(C)C)c2cc(Cc3ccc(F)cc3)cnc2c1O
216 to 217 °C	COC(=O)c1cc(C(=O)NCCF)c2cc(Cc3ccc(F)cc3)cnc2c1O
99 to 100 °C	COC(=O)c1cc(C(=O)N(C)CC(=O)N(C)C)c2cc(Cc3ccc(F)cc3)cnc2c1O
162 to 163 °C	COC(=O)c1cc(C(=O)NCCOCCO)c2cc(Cc3ccc(F)cc3)cnc2c1O
196 to 197 °C	COC(=O)c1cc(C(=O)N2CCC(O)CC2)c2cc(Cc3ccc(F)cc3)cnc2c1O
200 to 201 °C	CONC(=O)c1cc(C(=O)OC)c(O)c2ncc(Cc3ccc(F)cc3)cc12
228 to 229 °C	COC(=O)c1cc(C(=O)N2CCCC(=O)C2)c2cc(Cc3ccc(F)cc3)cnc2c1O
178 to 179 °C	COC(=O)c1cc(C(=O)NCC(C)C)c2cc(Cc3ccc(F)cc3)cnc2c1O
184 to 185 °C	CCOC(=O)CNNC(=O)c1cc(C(=O)OC)c(O)c2ncc(Cc3ccc(F)cc3)cc12
214 to 215 °C	COC(=O)c1cc(C(=O)NC2CCN(C(C)=O)CC2)c2cc(Cc3ccc(F)cc3)cnc2c1O
232 to 233 °C	COC(=O)c1cc(C(=O)NC2CCNCC2)c2cc(Cc3ccc(F)cc3)cnc2c1O
170 to 172 °C	COC(=O)c1cc(C(=O)NNCC(=O)N(C)C)c2cc(Cc3ccc(F)cc3)cnc2c1O
238 to 239 °C	CCOC(=O)c1cc(C(=O)O)c2cc(Cc3ccc(F)cc3)cnc2c1O
229 to 230 °C	COC(=O)c1cc(NC(=O)c2ccnc(C)c2)c2cc(Cc3ccc(F)cc3)cnc2c1O (as salt: salt)
